According to patent publication USRE37886E1, “1-(1,2-Disubstituted piperidinyl)-4-substituted piperazine derivatives” (Janssen Pharmaceuticals, N.V., priority 1995, dated 2002):

Key:
[1] = system: substance-P induced relaxation of the pig coronary arteries; experiment: Antagonism of substance-P induced relaxation of the pig coronary arteries; type: cell-based; settings: concentration at which 50% of the response to 10^−9 M substance P was inhibited, 30 minutes incubation, prostaglandin F2a precontracted segments
Description: (§1) The compounds of the present invention are potent inhibitors of neurokinin-mediated effects, in particular those mediated via the NK1 receptor, and may therefore be described as tachykinin antagonists, especially as substance P antagonists, as indicated in vitro by the antagonism of substance P induced relaxation of pig coronary arteries which is described hereinafter. The binding affinity of the present compounds for the human, guinea-pig and gerbil neurokinin receptors may be determined in vitro in a receptor binding test using ^3H-substance-P as radioligand. The subject compounds also show substance-P antagonistic activity in vivo as may be evidenced by, for instance, the antagonism of substance P-induced plasma extravasation in guinea-pigs, or the antagonism of drug-induced emesis in ferrets (Watson et al., Br. J. Pharmacol. 115, 84-94, 1995).
Antagonism of substance-P induced relaxation of the pig coronary arteries
Segments of coronary artieries taken from pigs (killed by injection of an overdose of sodium pentobarbital) were inverted and mounted for recordign of isometric tension in organ baths (volume 20 ml) with the endothelium at the outside. The preparations were bathed in Krebs-Henseleit solution. The solution was kept at 37° C. and gassed with a mixture of O2/CO2 (95/5). After stabilisation of the preparations, prostaglandin F2a (10^−5 M) was administered to induce a contraction. This was repeated until contractivle responses became stable. Then prostaglandin F2a was again administered and substance P(3×10^−10 M and 10^−9 M cumulatively) was added. Substance P induced endothelium dependent relaxations. After washing away the agonists, a known concentratin of a compound of formula (I) was added. After an incubation period of 30 minutes, prostaglandin F2a ([…]) and the same concentrations of sbustance P as described above were again administered in the presence of the compound to be tested. Relaxations caused by substance P were expressed as relaxations under control conditions, and percent inhibition of the response to […] substance P was taken as a measure of the antagonistic activity of the compound to be tested. Table 6 lists the IC50 values (concentration at which 50% of the response to […] substance P was inhibited by the test compound) for the tested compounds.

[2] = system: substance P induced plasma extravasation; experiment: Antagonism of substance P induced plasma extravasation in guinea-pigs; type: in vivo; settings: lowest active dose, female guinea-pigs; for LAD nose: compound 1 hour prior to substance P (2 mg/kg, femoral artery), blue colouring of nose 10 minutes after challenge; for LAD conjunctiva / LAD forepaws / LAD trachea / LAD urinary bladder: compound 1 hour prior to substance P; for LAD conjunctiva: blue colouring of conjunctiva 10 minutes after challenge; for LAD forepaws: blue colouring of forepaws 10 minutes after challenge; for LAD trachea: blue colouring of trachea 30 minutes after challenge; for LAD urinary bladder: blue colouring of urinary bladder 30 minutes after challenge
Description: as §1
Antagonism of substance P induced plasma extravasation in guinea-pigs
Plasma extravasation was induced by injection of substance P (2 mg/kg) in the femoral artery of female guinea-pigs. Evans Blue dye (30 mg/kg) was injected simultaneously. The test compound or solvent was administered 1 hour prior to substance P injection. 10 minutes after challenge, the aminals were checked for blue colouring (a direct measure for plasma extravasation) of the nose, the forepaws, and the conjectiva. 30 minutes after challenge, the animals were sacrificed by CO2 gas inhalation and checked for blue colouring of the trachea and the urinary bladder. […]

Row | Structure (SMILES) | IC50 [1] | LAD nose [2] | LAD conjunctiva [2] | LAD forepaws [2] | LAD trachea [2] | LAD urinary bladder [2] | IC50 ([1]; Sus scrofa, 0.5 h)
1 | O=C(C(c1ccccc1)N1CCN(C2CCN(C(=O)c3cc(C(F)(F)F)cc(C(F)(F)F)c3)C(Cc3ccccc3)C2)CC1)N1CCCC1 (mixture of isomers) [Compound 46] | 0.42 nM | 0.63 mg/kg | 0.63 mg/kg | 0.63 mg/kg | >40 mg/kg | 0.63 mg/kg | –
2 | O=C(C(c1ccccc1)N1CCN(C2CCN(C(=O)c3cc(C(F)(F)F)cc(C(F)(F)F)c3)C(Cc3ccccc3)C2)CC1)N1CCCC1 (mixture of isomers) [Compound 52] | 1.1 nM | 0.63 mg/kg | 2.50 mg/kg | 0.63 mg/kg | 10.0 mg/kg | 10.0 mg/kg | –
3 | CCOCCn1c(CN2CCN(C3CCN(C(=O)c4cc(C(F)(F)F)cc(C(F)(F)F)c4)C(Cc4ccccc4)C3)CC2)nc2cccnc21 (racemic) [Compound 25] | 0.79 nM | 2.50 mg/kg | 10.0 mg/kg | 2.50 mg/kg | >40 mg/kg | >40 mg/kg | –
4 | O=C(CN1CCN(C2CCN(C(=O)c3cc(C(F)(F)F)cc(C(F)(F)F)c3)C(Cc3ccccc3)C2)CC1)Nc1c(Cl)cccc1Cl (racemic) [Compound 45] | 0.15 nM | 0.63 mg/kg | 0.63 mg/kg | 0.63 mg/kg | >40 mg/kg | 2.50 mg/kg | –
5 | COc1ccccc1N1CCN(C2CCN(C(=O)c3cc(C(F)(F)F)cc(C(F)(F)F)c3)C(Cc3ccccc3)C2)CC1 (racemic) [Compound 56] | 3.25 nM | 10.0 mg/kg | 10.0 mg/kg | 10.0 mg/kg | 40.0 mg/kg | 2.50 mg/kg | –
6 | Cc1cccc(C)c1NC(=O)CN1CCN(C2CCN(C(=O)c3cc(C(F)(F)F)cc(C(F)(F)F)c3)C(Cc3ccccc3)C2)CC1 (racemic) [Compound 59] | 1.2 nM | 2.50 mg/kg | 2.50 mg/kg | 2.50 mg/kg | 5.00 mg/kg | 5.00 mg/kg | –
7 | O=C(O)C=CC(=O)O.O=C(O)C=CC(=O)O.O=C(c1cc(C(F)(F)F)cc(C(F)(F)F)c1)N1CCC(N2CCCN(Cc3ccccc3)CC2)CC1Cc1ccccc1 (racemic) [Compound 68] | 5.88 nM | 10.0 mg/kg | 40.0 mg/kg | 10.0 mg/kg | >40 mg/kg | >40 mg/kg | –
8 | Cc1ncc(Cn2c(N3CCN([C@H]4CCN(C(=O)c5cc(C(F)(F)F)cc(C(F)(F)F)c5)[C@@H](Cc5ccccc5)C4)CC3)nc3ccccc32)o1 (racemic) [Compound 70, (±)-cis-1-[3,5-bis(trifluoromethyl)benzoyl]-4-[4-[1-[(2-methyl-5-oxazolyl)methyl]-1H-benzimidazol-2-yl]-1-piperazinyl]-2-(phenylmethyl)piperidine] | – | 10.0 mg/kg | 10.0 mg/kg | 10.0 mg/kg | 10.0 mg/kg | 10.0 mg/kg | 0.29 nM
9 | Cc1ncc(Cn2c(N3CCN(C4CCN(C(=O)c5cc(C(F)(F)F)cc(C(F)(F)F)c5)C(Cc5ccccc5)C4)CC3)nc3ccccc32)o1 (racemic) [Compound 85] | 0.15 nM | 2.50 mg/kg | 2.50 mg/kg | 2.50 mg/kg | 2.50 mg/kg | 10.0 mg/kg | –
10 | Cc1cc(C)cc(COC(CN2CCN(C3CCN(C(=O)c4cc(C(F)(F)F)cc(C(F)(F)F)c4)C(Cc4ccccc4)C3)CC2)c2ccccc2)c1 (racemic) [Compound 87] | 1.9 nM | 10.0 mg/kg | 10.0 mg/kg | 10.0 mg/kg | 10.0 mg/kg | >40 mg/kg | –
11 | Cc1cccc(C)c1NC(=O)C(c1ccccc1)N1CCN(C2CCN(C(=O)c3cc(C(F)(F)F)cc(C(F)(F)F)c3)C(Cc3ccccc3)C2)CC1 (racemic) [Compound 94] | 0.42 nM | 2.50 mg/kg | 2.50 mg/kg | 2.50 mg/kg | 10.0 mg/kg | 10.0 mg/kg | –
12 | O=C(CN1CCN(C2CCN(C(=O)c3cc(C(F)(F)F)cc(C(F)(F)F)c3)C(Cc3ccccc3)C2)CC1)N1CCCc2ccccc21 (racemic) [Compound 101] | 0.75 nM | 10.0 mg/kg | 10.0 mg/kg | 10.0 mg/kg | >40 mg/kg | >40 mg/kg | –
13 | Cc1cccc(C)c1NC(=O)CCN1CCN(C2CCN(C(=O)c3cc(C(F)(F)F)cc(C(F)(F)F)c3)C(Cc3ccccc3)C2)CC1 (racemic) [Compound 105] | 1.05 nM | 2.50 mg/kg | 2.50 mg/kg | 2.50 mg/kg | >40 mg/kg | >40 mg/kg | –
14 | O=C(CN1CCN(C2CCN(C(=O)c3cc(C(F)(F)F)cc(C(F)(F)F)c3)C(Cc3ccccc3)C2)CC1)N1CCc2ccccc21 (racemic) [Compound 107] | 0.96 nM | 2.50 mg/kg | 2.50 mg/kg | 2.50 mg/kg | 2.50 mg/kg | 10.0 mg/kg | –
15 | Cc1ncc(CN2CCN(C3CCN(C(=O)c4cc(C(F)(F)F)cc(C(F)(F)F)c4)C(Cc4ccccc4)C3)CC2)o1 (racemic) [Compound 119] | 2.81 nM | 2.50 mg/kg | 2.50 mg/kg | 2.50 mg/kg | 10.0 mg/kg | >40 mg/kg | –
16 | Cc1cccc(C)c1NC(=O)CN1CCN([C@H]2CCN(C(=O)c3cc(C(F)(F)F)cc(C(F)(F)F)c3)[C@@H](Cc3cc(F)cc(F)c3)C2)CC1 (racemic) [Compound 132, (±)-cis-4-[1-[3,5-bis (trifluoromethyl)benzoyl]-2-[(3,5-difluorophenyl)methyl]-4-piperidinyl]-N-(2,6-dimethylphenyl)-1-piperazineacetamide] | – | 10.0 mg/kg | 10.0 mg/kg | 10.0 mg/kg | 10.0 mg/kg | 10.0 mg/kg | 2.08 nM
17 | O=C(c1cc(C(F)(F)F)cc(C(F)(F)F)c1)N1CCC(N2CCN(CC=Cc3ccccc3)CC2)CC1Cc1ccccc1 (centres unmarked) [Compound 28] | 13.3 nM | – | – | – | – | – | –
18 | O=C(c1cc(C(F)(F)F)cc(C(F)(F)F)c1)N1CCC(N2CCN(CC=Cc3ccccc3)CC2)CC1Cc1ccccc1 (centres unmarked) [Compound 29] | 0.45 nM | – | – | – | – | – | –
19 | O=C(c1cc(C(F)(F)F)cc(C(F)(F)F)c1)N1CCC(N2CCN(C(c3ccc(F)cc3)c3ccc(F)cc3)CC2)CC1Cc1ccccc1 (centres unmarked) [Compound 35] | 17 nM | – | – | – | – | – | –
20 | O=C(c1cc(C(F)(F)F)cc(C(F)(F)F)c1)N1CCC(N2CCN(C(c3ccc(F)cc3)c3ccc(F)cc3)CC2)CC1Cc1ccccc1 (centres unmarked) [Compound 36] | 2.31 nM | – | – | – | – | – | –
21 | O=C(CN1CCN(C2CCN(C(=O)c3cc(C(F)(F)F)cc(C(F)(F)F)c3)C(Cc3ccccc3)C2)CC1)Nc1ccccc1 (centres unmarked) [Compound 37] | 9.6 nM | – | – | – | – | – | –
22 | O=C(c1cc(C(F)(F)F)cc(C(F)(F)F)c1)N1CCC(N2CCN(CCc3ccccc3)CC2)CC1Cc1ccccc1 (centres unmarked) [Compound 44] | 8.34 nM | – | – | – | – | – | –
23 | COc1ccccc1NC(=O)CN1CCN(C2CCN(C(=O)c3cc(C(F)(F)F)cc(C(F)(F)F)c3)C(Cc3ccccc3)C2)CC1 (centres unmarked) [Compound 51] | 1.35 nM | – | – | – | – | – | –
24 | O=C(c1cc(C(F)(F)F)cc(C(F)(F)F)c1)N1CCC(N2CCN(C(c3ccccc3)c3ccccc3)CC2)CC1Cc1ccccc1 (centres unmarked) [Compound 55] | 2.8 nM | – | – | – | – | – | –
